Paper PMC7560154, “Novel Antimicrobial Peptide from Temporin L in The Treatment of Staphylococcus pseudintermedius and Malassezia pachydermatis in Polymicrobial Inter-Kingdom Infection” (Antibiotics, 2020)
Where a SMILES comes first, the peptide text is derived from it. [ ]: non-standard residue; d: D form.

Assays:
[1] = tested on: MRSP mature biofilm; assay: Mature biofilm metabolic activity, XTT assay, MRSP; assay type: cell-based, Staphylococcus pseudintermedius; conditions: 24 h
Experimental: The metabolic activity of MSSP and MRSP mature biofilms was quantified by the XTT [2,3-bis(2-methyloxy-4-nitro-5-sulfophenyl)-2H-tetrazolium-5-carboxanilide] (Roche Diagnostics, Germany) reduction assay. The assay was conducted as previously described with some modifications. XTT (150 µL) was added to biofilms in each well and the plates were incubated for 40 min at 37 °C in the dark. The reduction of the tetrazolium salt by cellular dehydrogenase into orange formazan dye was photometrically measured at 490 nm. The medium was set as negative control. Viability values for each well were compared to controls.

[2] = tested on: M. pachydermatis
Experimental: MIC of all compounds was determined in Sabouraud Dextrose broth with 1% tween 80 (SB) medium, for M. pachydermatis, and Mueller–Hinton broth (MH), for S. pseudintermedius, by the broth microdilution assay (BMD) in 96-well microtiter plates, as previously reported. Specifically, SB containing 1% Tween 80 was used instead of RPMI 1640 medium. All compounds were dissolved in ethanol and ketoconazole in dimethyl sulfoxide (DMSO). The solutions were serially diluted in SB and MH two-fold from 0.19 to 50 μM. M. pachydermatis suspension was prepared from 3-day-old colonies grown on Sabouraud agar at 30 °C. The final concentration of the yeast inoculum suspensions was equivalent to 1–3 × 10^3 CFU/mL. Bacterial suspensions were diluted to yield an optical density (OD) around 0.5 at 595 nm and further diluted to a final concentration of 1 × 10^6 CFU/mL. The compounds were added to the microbial suspension in each well yielding a final cell concentration of 5 × 10^5 CFU/mL. Positive controls included oxacillin 5 μM (2 μg/mL) and vancomycin 1.4 μM (2 μg/mL) for S. pseudintermedius or ketoconazole 0.2 μM (0.125 μg/mL) for M. pachydermatis. Negative control wells were set to contain bacteria in MH or yeasts in SB plus the amount of ethanol used to dilute each compound. Medium turbidity was measured by a microtiter plate reader (Tecan, Milan, Italy) at 595 nm after 24 h for S. pseudintermedius and 48 h for M. pachydermatis. Absorbance was proportional to microbial growth. The MIC was defined as the lowest concentration of drug that caused a prominent decrease (≥90% inhibition) in visible growth relative to that of the growth control.

[3] = tested on: human keratinocytes; conditions: at MICs; cited from earlier work
From the text: Azole drugs represent the first choice to treat Malassezia-related infections. It is well known that routine antifungal administration may induce acquired resistance. Peptide 8 was further investigated to verify if prolonged treatment might induce resistance in the yeast. […] Thus, a prolonged application of peptide 8 can be resolutive for yeast infection, without causing drug-resistance. By considering the good results obtained until here, we were prompted to inves ...

[4] = tested on: MSSP mature biofilm; assay: Mature biofilm biomass, crystal violet assay, MSSP; assay type: cell-based, Staphylococcus pseudintermedius; conditions: MSSP one-day-old biofilm, up to 25 μM, 24 h
Experimental: Biofilms were allowed to form in each well of a 96-well microtiter plate, as described by Stepanovic. After 24 h, planktonic cells were aspirated, and the plates were washed with 200 μL of PBS. Cells biofilms were exposed to 200 μL of peptide 8 at the final concentration ranging from 6.25 to 25 μM and the plate was further incubated for 24 h at 37 °C. Positive controls were non-treated cells incubated with 200 μL of medium broth. At the end of the experiment crystal violet-staining was performed to assess biofilm mass.

[5] = tested on: MRSP; assay: Checkerboard synergy of peptide 8 and oxacillin; assay type: cell-based, Staphylococcus pseudintermedius; conditions: MRSP
Experimental: The interaction between peptide 8 and oxacillin against MRSP was evaluated by the checkerboard method. Briefly, twofold serial dilutions of oxacillin distributed in horizontal rows of 96-well microtiter plate were cross-diluted vertically by twofold serial dilutions of peptide 8 to at least double the MIC. The peptide 8 tested concentration ranging from 0.19 to 12.5 μM and oxacillin from 1.25 to 25 μM (0.5 to 10 μg/mL). Microtiter plates were inoculated with bacteria at an approximate concentration of 10^5 CFU/mL and incubated at 37 °C for 24 h. […] To evaluate the effect of the combination treatment, the fractional inhibitory concentration (FIC) index for each combination was calculated as follows: FIC index = FIC of peptide 8 + FIC of oxacillin, where FIC of peptide 8 (or oxacillin) was defined as the ratio of MIC of peptide 8 (or oxacillin) in combination and MIC of peptide 8 (or oxacillin) alone. The FIC index values were interpreted as follows: ≤0.5, synergistic; >0.5 to ≤1.0, additive; >1.0 to ≤2.0, indifferent; and >2.0, antagonistic effects.

[6] = tested on: M. pachydermatis; assay: Resistance acquisition test (serial subculture with sublethal peptide 8); assay type: cell-based, Malassezia pachydermatis
Experimental: To evaluate if the yeast acquired resistance to the drug, after a continued treatment, M. pachydermatis was subcultured with a sub lethal concentration of peptide 8 (1/2 MIC). Briefly, a final 3.12 μM peptide 8 concentration was added to yeast inoculum suspension equivalent to 1–3 × 10^6 CFU/mL in Sabouraud dextrose broth (SB) and incubated 72 h at 30 °C (inoculum 1). After this period, optical density was measured and a new yeast subculture with 3.12 μM of peptide 8 was prepared starting from inoculum 1 (inoculum 2). Three days after, optical density was again recorded and a new inoculum in presence of peptide 8 prepared. This was repeated until evident yeast death was observed.

[7] = tested on: MRSP mature biofilm; assay: Confocal laser scanning microscopy of mature biofilm (LIVE/DEAD); assay type: cell-based, Staphylococcus pseudintermedius; conditions: MRSP 1-day-old biofilm, 24 h; 12.5 μM in method, 32 μg/mL in Figure 4 legend
Experimental: CLSM was used to confirm the effect of peptide 8 on mature biofilm respect the controls. MSRP were grown in chambered cover glass (μ Slide 4 well; ibidi GmbH, Germany) in a static condition for 24 h. Peptide 8 was added on a 1-day-old biofilm at 12.5 μM. Bacterial suspensions incubated with medium alone were used as a positive control. After 24 h, biofilms were rinsed with PBS and stained by using a LIVE/DEAD® BacLight Bacteria Viability stains (Life Technologies, Italy). After the staining, the images were observed using a LSM 700 inverted confocal laser-scanning microscope (Zeiss, Italy). The areas were scanned using a 10X objective lens with the signal recorded in the green channel for Syto9 (excitation 488 nm, emission 500–525 nm) and in red channel for PI (excitation 500–550 nm, emission 610–650 nm).

CC[C@H](C)[C@H](NC(=O)[C@H](CCCNC(=N)N)NC(=O)[C@@H](CCCCN)NC(=O)[C@@H](CC(C)C)NC(=O)[C@H](Cc1ccccc1)NC(=O)[C@H](CCCCN)NC(=O)[C@H](CO)NC(=O)[C@H](Cc1ccccc1)NC(=O)[C@H](Cc1c[nH]c2ccccc12)NC(=O)[C@@H]1CCCN1C(=O)[C@@H](NC(=O)[C@@H](N)Cc1ccccc1)C(C)C)C(=O)N[C@@H](CC(C)C)C(N)=O [Peptide 8] (H-FVPWFSKF[dL][dK]RIL-NH2; N-terminus assumed)
Reduction of biofilm viability ([1]; 6.25 μM): 38%
Reduction of biofilm viability ([1]; 12.5 μM): 52%
Effect on biofilm viability at 25 μM ([1]; 25 μM): reduced effect
MMC/MIC Ratio ([2]; M. pachydermatis): 1
MMC Values (minimum mycocidal concentration) ([2]; ≥3 log10 reduction in colony count from starting inoculum, agar 72 h at 30 °C): 6.25 µM
Cytotoxicity [3]: low cytotoxicity
Effect on mature biofilm biomass [4]: did not affect the biomass
FICindex ([5]; peptide 8 + oxacillin, checkerboard, 37 °C 24 h, ≤0.5 synergistic): 0.37
Concentration of peptide 8 in the most synergistic combination ([5]; with 3.1 μM oxacillin, 1/4 MIC): 1.56 µM
Log10 CFU/Ml After 15 Generation Subcultures Including TL48 ([6]; 3.12 μM (1/2 MIC), 15 subcultures (about 2 months), three independent experiments in triplicate): 2.10 ± 0.12 Log10 CFU/Ml
Log10 CFU/Ml After 1 Generation Subculture Including TL48 ([6]; 3.12 μM (1/2 MIC), Sabouraud dextrose broth, 72 h at 30 °C per subculture, three independent experiments in triplicate): 5.80 ± 0.25 Log10 CFU/Ml
Acquisition of resistance after prolonged treatment ([6]; 2 months of repeated sublethal concentration treatment): did not acquire resistance
Effect on cells within mature biofilm (LIVE/DEAD staining) [7]: killed or damaged
